Values after ≈ are worked out from the molar mass of the structure shown.
Tested on: Mycobacterium tuberculosis
Assay: Antimycobacterial activity against Mycobacterium tuberculosis at 12.5 ug/ml
Type: functional
Conditions: read-out: GI

| Compound | inhibition of growth at 12.5 µg/mL [%] |
| --- | --- |
| C=CCNC(=O)C(C)(c1ccccc1)N(CCCN1CCOCC1)C(=O)c1cccnc1 (configuration not stated) | 72 |
| C=CCNC(=O)C(N(CC(C)(C)C)C(=O)c1cccnc1)C(F)(F)F (configuration not stated) | 77 |
| C=CCNC(=O)C(C)(C)N(CC=C)C(=O)c1cccnc1 | 76 |
| C=CCNC(=O)C(CCCCC)N(CCCN1CCOCC1)C(=O)c1cccnc1 (configuration not stated) | 74 |
| C=CCNC(=O)C(CCCCC)N(CC(C)(C)C)C(=O)c1cccnc1 (configuration not stated) | 73 |
| C=CCNC(=O)C(C)(C)N(C(=O)c1cccnc1)C(C)c1ccccc1 (configuration not stated) | 83 |
| C=CCNC(=O)C1(N(CCCn2ccnc2)C(=O)c2cccnc2)CCCCC1 | 43 |
| C=CCNC(=O)C1(N(CCCN2CCOCC2)C(=O)c2cccnc2)CCCc2cc(OC)ccc21 (configuration not stated) | 64 |
| C=CCNC(=O)C(C)(c1ccccc1)N(CCCn1ccnc1)C(=O)c1cccnc1 (configuration not stated) | 71 |
| C=CCNC(=O)C(C)(c1ccccc1)N(CC=C)C(=O)c1cccnc1 (configuration not stated) | 69 |
| C=CCNC(=O)C1(N(CCCN2CCOCC2)C(=O)c2cccnc2)CCCCC1 | 49 |
| C=CCNC(=O)C(CCCC)N(CCCn1ccnc1)C(=O)c1cccnc1 (configuration not stated) | 89 |
| C=CCNC(=O)C(C)(C(C)C)N(C(=O)c1cccnc1)C(C)c1ccccc1 (configuration not stated) | 83 |
| C=CCNC(=O)C(C)(C)N(CCCn1ccnc1)C(=O)c1cccnc1 | 57 |
| C=CCNC(=O)C1(N(C(=O)c2cccnc2)C(C)c2ccccc2)CCCCC1 (configuration not stated) | 74 |
| C=CCNC(=O)C(CCCC)N(C(=O)c1cccnc1)C(C)c1ccccc1 (configuration not stated) | 100 |
| C=CCNC(=O)C1(N(Cc2ccncc2)C(=O)c2cccnc2)CCCCC1 | 87 |
| C=CCNC(=O)C(C)(c1ccccc1)N(Cc1ccncc1)C(=O)c1cccnc1 (configuration not stated) | 68 |
| C=CCNC(=O)C1(N(CC(C)(C)C)C(=O)c2cccnc2)CCCc2cc(OC)ccc21 (configuration not stated) | 72 |
| C=CCNC(=O)C(CCCCC)N(Cc1ccncc1)C(=O)c1cccnc1 (configuration not stated) | 89 |

| Compound | inhibition of growth at 12.5 µg/mL [%] |
| --- | --- |
| C=CCNC(=O)C(CCCCC)N(C(=O)c1cccnc1)C1CCCCC1 (configuration not stated) | 100 |
| C=CCNC(=O)C(C(C)C)N(C(=O)c1cccnc1)C1CCCCC1 (configuration not stated) | 62 |
| C=CCNC(=O)C(C)(C)N(CC(C)(C)C)C(=O)c1cccnc1 | 71 |
| C=CCNC(=O)C(C=C)(CC)N(CC(C)(C)C)C(=O)c1cccnc1 (configuration not stated) | 60 |
| C=CCNC(=O)C(CCCC)N(CCCN1CCOCC1)C(=O)c1cccnc1 (configuration not stated) | 69 |
| C=CCNC(=O)C(CCCC)N(C(=O)c1cccnc1)C1CC1 (configuration not stated) | 96 |
| C=CCNC(=O)C(N(C(=O)c1cccnc1)C1CCCCC1)C(F)(F)F (configuration not stated) | 60 |
| C=CCNC(=O)C(C)(c1ccccc1)N(C(=O)c1cccnc1)C(C)c1ccccc1 (configuration not stated) | 83 |
| C=CCNC(=O)C(C)(C(C)C)N(Cc1ccncc1)C(=O)c1cccnc1 (configuration not stated) | 52 |
| C=CCNC(=O)C(CCCCC)N(C(=O)c1cccnc1)C1CC1 (configuration not stated) | 90 |
| C=CCNC(=O)C1(N(Cc2ccncc2)C(=O)c2cccnc2)CCCc2cc(OC)ccc21 (configuration not stated) | 63 |
| C=CCNC(=O)C(C)(C(C)C)N(CC=C)C(=O)c1cccnc1 (configuration not stated) | 69 |
| C=CCNC(=O)C1(N(C(=O)c2cccnc2)C(C)c2ccccc2)CCN(Cc2ccccc2)CC1 (configuration not stated) | 54 |
| C=CCNC(=O)C1(N(C(=O)c2cccnc2)C(C)c2ccccc2)CCCc2cc(OC)ccc21 (configuration not stated) | 82 |
| C=CCNC(=O)C1(N(C(=O)c2cccnc2)C2CCCCC2)CCCc2cc(OC)ccc21 (configuration not stated) | 72 |
| C=CCNC(=O)C1(N(CC=C)C(=O)c2cccnc2)CCCc2cc(OC)ccc21 (configuration not stated) | 80 |
| C=CCNC(=O)C1(N(CC=C)C(=O)c2cccnc2)CCN(Cc2ccccc2)CC1 | 94 |
| C=CCNC(=O)C(C(C)C)N(CCCN1CCOCC1)C(=O)c1cccnc1 (configuration not stated) | 33 |
| C=CCNC(=O)C(C(C)C)N(CCCn1ccnc1)C(=O)c1cccnc1 (configuration not stated) | 43 |
| C=CCNC(=O)C(C)(C(C)C)N(CCCN1CCOCC1)C(=O)c1cccnc1 (configuration not stated) | 64 |

| Compound | inhibition of growth at 12.5 µg/mL [%] |
| --- | --- |
| C=CCNC(=O)C(CCCC)N(CC(C)(C)C)C(=O)c1cccnc1 (configuration not stated) | 102 |
| C=CCNC(=O)C(CCCCC)N(CC=C)C(=O)c1cccnc1 (configuration not stated) | 11 |
| C=CCNC(=O)C1(N(CC=C)C(=O)c2cccnc2)CCCCC1 | 80 |
| C=CCNC(=O)C(N(C(=O)c1cccnc1)C1CCCCC1)C(Cl)(Cl)Cl (configuration not stated) | 74 |
| C=CCNC(=O)C(C(C)C)N(Cc1ccncc1)C(=O)c1cccnc1 (configuration not stated) | 50 |
| C=CCNC(=O)C(C=C)(CC)N(C(=O)c1cccnc1)C1CCCCC1 (configuration not stated) | 84 |
| C=CCNC(=O)C1(N(CCCN2CCOCC2)C(=O)c2cccnc2)CCN(Cc2ccccc2)CC1 | 33 |
| C=CCNC(=O)C(N(CC(C)(C)C)C(=O)c1cccnc1)C(Cl)(Cl)Cl (configuration not stated) | 74 |
| C=CCNC(=O)C1(N(C(=O)c2cccnc2)C2CC2)CCN(Cc2ccccc2)CC1 | 43 |
| C=CCNC(=O)C(C)(C(C)C)N(C(=O)c1cccnc1)C1CCCCC1 (configuration not stated) | 95 |
| C=CCNC(=O)C1(N(Cc2ccncc2)C(=O)c2cccnc2)CCN(Cc2ccccc2)CC1 | 64 |
| C=CCNC(=O)C(C=C)(CC)N(CC=C)C(=O)c1cccnc1 (configuration not stated) | 39 |
| C=CCNC(=O)C(C)(C)N(C(=O)c1cccnc1)C1CCCCC1 | 92 |
| C=CCNC(=O)C(N(CCCN1CCOCC1)C(=O)c1cccnc1)C(F)(F)F (configuration not stated) | 72 |
| C=CCNC(=O)C(C(C)C)N(CC(C)(C)C)C(=O)c1cccnc1 (configuration not stated) | 76 |
| C=CCNC(=O)C(N(Cc1ccncc1)C(=O)c1cccnc1)C(F)(F)F (configuration not stated) | 58 |
| C=CCNC(=O)C(N(CCCN1CCOCC1)C(=O)c1cccnc1)C(Cl)(Cl)Cl (configuration not stated) | 78 |
| C=CCNC(=O)C(N(C(=O)c1cccnc1)C1CC1)C(F)(F)F (configuration not stated) | 74 |

Tested on: Vero
Assay: Cytotoxicity against Vero cells
Type: cell-based
Conditions: Chlorocebus sabaeus

| Compound | IC50 [µg/mL] |
| --- | --- |
| CCCCC(C(=O)NCc1ccccc1)N(C(=O)c1cnccn1)C1CCCCC1 (configuration not stated) | 27.9 (≈ 68.3 µM) |
| C=CCNC(=O)C1(OC(=O)c2cccnc2)CCN(Cc2ccccc2)CC1 | > 62.5 |
| C=CCNC(=O)C(CCCC)N(CC=C)C(=O)c1cccnc1.Cl (configuration not stated) | 31.1 |
| CC(C)CCN(C(=O)c1cccnc1)C(C(=O)NCc1cccnc1)c1ccccc1 (configuration not stated) | 50.3 (≈ 121 µM) |

Tested on: Mycobacterium tuberculosis
Assay: Antimycobacterial activity against Mycobacterium tuberculosis H37Rv by broth microdilution alamar blue assay
Type: functional
Conditions: not given

| Compound | MIC [µg/mL] |
| --- | --- |
| CCCCC(C(=O)NCc1ccccc1)N(C(=O)c1cnccn1)C1CCCCC1 (configuration not stated) | 3.13 (≈ 7.66 µM) |
| C=CCNC(=O)C1(OC(=O)c2cccnc2)CCN(Cc2ccccc2)CC1 | 6.25 (≈ 16.5 µM) |
| C=CCNC(=O)C(CCCC)N(CC=C)C(=O)c1cccnc1.Cl (configuration not stated) | 3.13 |
| CC(C)CCN(C(=O)c1cccnc1)C(C(=O)NCc1cccnc1)c1ccccc1 (configuration not stated) | 3.13 (≈ 7.51 µM) |

Tested on: Mycobacterium tuberculosis
Assay: Reduction of Mycobacterium tuberculosis H37Rv growth in mouse peritoneal macrophage monolayers after 7 days
Type: functional
Conditions: 168 h

| Compound | EC90 [µg/mL] | EC99 [µg/mL] |
| --- | --- | --- |
| CC(C)CCN(C(=O)c1cccnc1)C(C(=O)NCc1cccnc1)c1ccccc1 (configuration not stated) | > 12.5 | > 12.5 |

Tested on: not listed separately
Assay: Selectivity index, IC50 for Vero cells to MIC for Mycobacterium tuberculosis H37Rv
Type: functional
Conditions: not given

| Compound | Selectivity index |
| --- | --- |
| CCCCC(C(=O)NCc1ccccc1)N(C(=O)c1cnccn1)C1CCCCC1 (configuration not stated) | 9.9 |
| C=CCNC(=O)C1(OC(=O)c2cccnc2)CCN(Cc2ccccc2)CC1 | >10 |
| C=CCNC(=O)C(CCCC)N(CC=C)C(=O)c1cccnc1.Cl (configuration not stated) | 9.9 |
| CC(C)CCN(C(=O)c1cccnc1)C(C(=O)NCc1cccnc1)c1ccccc1 (configuration not stated) | 16.1 |
